The target of experiment [1] is T1, Lysophosphatidic acid receptor 2 (Homo sapiens, UniProt Q9HBW0). Description: Agonistic activity against lysophosphatidic acid receptor 2 using [35S]GTP-gamma-S as radioligand tested in vitro. Format: functional. For orientation: GTPγS is a poorly hydrolysed GTP analogue; its binding reports G protein activation.
The target of experiment [2] is T2, Lysophosphatidic acid receptor 1 (Homo sapiens, UniProt Q92633). The experiment in a line: Agonistic activity against lysophosphatidic acid receptor 1 using [35S]GTP-gamma-S as radioligand tested in vitro. It counts as functional.
T2 sequence (Q92633 whole entry): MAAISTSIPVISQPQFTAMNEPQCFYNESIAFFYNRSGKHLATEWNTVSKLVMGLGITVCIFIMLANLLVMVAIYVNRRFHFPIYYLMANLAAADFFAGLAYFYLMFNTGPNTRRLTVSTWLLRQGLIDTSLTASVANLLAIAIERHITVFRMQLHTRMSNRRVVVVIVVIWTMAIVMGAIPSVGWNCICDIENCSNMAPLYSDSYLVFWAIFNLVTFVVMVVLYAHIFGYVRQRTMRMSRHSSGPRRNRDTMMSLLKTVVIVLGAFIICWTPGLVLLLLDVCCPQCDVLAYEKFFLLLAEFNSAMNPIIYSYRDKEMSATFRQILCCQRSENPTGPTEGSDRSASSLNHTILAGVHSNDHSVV
The target in experiment [3] is T3, Lysophosphatidic acid receptor 3 (Homo sapiens, UniProt Q9UBY5).
T3 sequence (Q9UBY5 whole entry): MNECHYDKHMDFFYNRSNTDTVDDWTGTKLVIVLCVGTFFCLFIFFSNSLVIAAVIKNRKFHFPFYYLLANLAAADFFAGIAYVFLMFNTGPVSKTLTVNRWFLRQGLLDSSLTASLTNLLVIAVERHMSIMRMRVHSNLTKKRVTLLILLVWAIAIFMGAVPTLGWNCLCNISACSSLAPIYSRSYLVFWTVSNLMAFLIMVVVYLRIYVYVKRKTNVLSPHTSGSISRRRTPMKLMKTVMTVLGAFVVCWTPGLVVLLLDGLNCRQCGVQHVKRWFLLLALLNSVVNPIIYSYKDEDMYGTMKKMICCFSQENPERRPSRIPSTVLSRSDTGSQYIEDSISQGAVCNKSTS
The experiment in a line: Agonistic activity against lysophosphatidic acid receptor 3 using [35S]GTP-gamma-S as radioligand tested in vitro. It counts as functional.

For experiment [4], the target named is T1, Lysophosphatidic acid receptor 2. Description: Maximal efficacy to that of maximal efficacy of LPA against lysophosphatidic acid receptor 2 was determined in vitro.
Experiment [5] concerns the target T2, Lysophosphatidic acid receptor 1. Description: Maximal efficacy to that of maximal efficacy of LPA against lysophosphatidic acid receptor 1 was determined in vitro.
Experiment [6] shares this target. Description: Agonistic activity against lysophosphatidic acid receptor 1 receptor using [35S]GTP-gamma-S as radioligand tested in vitro. Format: functional.
Experiment [7] concerns the target T4, Lysophosphatidic acid receptor 3 (Homo sapiens) (UniProt Q9UBY5).
T4 sequence (whole entry): T3 sequence (Q9UBY5 whole entry)
The experiment in a line: Maximal efficacy to that of maximal efficacy of LPA against lysophosphatidic acid receptor 3 was determined in vitro.

pEC50: −log10 of the molar value. Bounds are passed on as bounds.

The term pEC50 denotes the EC50 on a negative log10 scale, so that one unit is a factor of ten. A word on the Emax: it is the greatest response seen or fitted, relative to the assay's reference.

T1 sequence (Q9HBW0 whole entry): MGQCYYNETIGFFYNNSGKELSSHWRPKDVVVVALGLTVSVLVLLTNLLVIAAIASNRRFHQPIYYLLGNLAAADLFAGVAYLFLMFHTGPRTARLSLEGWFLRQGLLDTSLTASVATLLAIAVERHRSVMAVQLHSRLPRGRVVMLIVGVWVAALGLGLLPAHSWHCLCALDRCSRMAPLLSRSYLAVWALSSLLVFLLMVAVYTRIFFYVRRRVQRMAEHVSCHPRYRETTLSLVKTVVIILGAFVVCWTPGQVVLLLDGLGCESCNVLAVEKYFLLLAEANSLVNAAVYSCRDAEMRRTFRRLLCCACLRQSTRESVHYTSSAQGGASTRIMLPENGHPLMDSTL

Turning to `CCCCCCCC/C=C\CCCCCCCC(=O)NCCC(O)(P(=O)(O)O)P(=O)(O)O`, the pEC50 in experiment [1], in experiment [2] and in experiment [3] was under 5.30 throughout.

Consider `CCCCCCCC/C=C\CCCCCCCC(=O)NCCC(F)P(=O)(O)O` (stereo unspecified), for which the pEC50 was 5.71 in experiment [1], under 5.30 in experiment [2] and under 5.30 in experiment [3]. For the same compound, the Emax in experiment [4] turned out to be 100%.

`CCCCCCCC/C=C\CCCCCCCC(=O)NCCC(=O)P(O)(O)=S`: the negative logarithm of the EC50 (pEC50) in experiment [1] was 6.97; in experiment [2] it was 7.40; in experiment [3], under 5.30. For the same compound, the values for the Emax in experiment [4] and in experiment [5] were 46% and 80%, respectively.

Consider `CCCCCCCC/C=C\CCCCCCCC(=O)NCCC(O)P(=O)(O)O` (stereo unspecified), for which the negative logarithm of the EC50 (pEC50) is 5.68 in experiment [1], under 5.30 in experiment [3] and 5.91 in experiment [6]. Besides, the results for the maximal effect (Emax) in experiment [4] and in experiment [5] were 90% and 80%, respectively.

In the case of `CCCCCCCC/C=C\CCCCCCCC(=O)NCCOP(=O)(O)O`, the maximal effect (Emax) in experiment [4] is 110%; in experiment [5] it was 100%.

In the case of `CCCCCCCC/C=C\CCCCCCCC(=O)NCCC(=O)P(=O)(O)O`, the pEC50 in experiment [1] is 5.96; in experiment [2] it was 6.66; in experiment [3], under 5.30. Further, the maximal response (Emax) in experiment [4] came to 90%; in experiment [5] it was 80%.

On to `CCCCCCCC/C=C\CCCCCCCC(=O)NCCCP(=O)(O)O`, for which the pEC50 in experiment [1] was under 5.30; in experiment [2] it was 5.71; in experiment [3], under 5.30. Further, the Emax in experiment [5] was 50%.

As to `CCCCCCCC/C=C\CCCCCCCC(=O)NCCC(=S)P(=O)(O)O`, the pEC50 in experiment [1] is under 5.30; in experiment [2], 6.50; in experiment [3], under 5.30. The maximal response (Emax) in experiment [5] is 50%.

In experiment [2], `CCCCCCCC/C=C\CCCCCCCC(=O)OC[C@@H](O)COP(=O)(O)O` [LYSOPHOSPHATIDIC ACID] showed a pEC50 of 7.77. For the same compound, the maximal response (Emax) in experiment [4], in experiment [5] and in experiment [7] was 100% throughout.

For the origin of these results see ChEMBL document CHEMBL1147466 (Bioorg Med Chem Lett, 2004).
